One test concerns GST-Ras^V12. Nature of the test: Direct binding of purified MEKKCOOH-His to GST-Ras^V12, read by phosphorylation of kinase inactive MEK1. The conditions noted are these: 100 μM peptide, pre-incubation 1 hr at 4° C. From the text:
A construct encoding the kinase domain of a Rat MEKK1 cDNA (95% identical to mouse MEKK1) with a N-terminal hexahistidine tag (referred to herein as MEKKCOOH-His; provided by Dr. Melanie Cobb, Department of Pharmacology, University of Texas Southwestern Medical School, Dallas, Tex.) was expressed in bacteria and soluble active enzyme was purified on Ni2+-NTA agarose according to the method generally described in Gardner et al. (Methods of Enzymology 238:258-270, 1994) Purified recombinant MEKKCOOH-His was incubated with either GST or GST-Ras^V12 in PAN buffer (10 mM PIPES [pH 7.0], 100 mM NaCl, 0.2 U/ml aprotinin) for 1 hr at 4° C. The agarose beads were pelleted and washed 3 times in PAN buffer. […] To test the direct interaction of MEKK1 with the effector domain of Ras, samples were prepared by pre-incubating the agarose beads with either 100 μM of Ras peptide consisting of residues 17-42 of H-Ras or 100 μM of Ras control peptide ([D-Arg^1,D-Phe^5,DTrp^7,9,Leu^11] substance P peptide for 1 hr at 4° C. prior to addition of the MEK1 substrate. A control reaction containing wild-type MEKK1 which autophosphorylates, served as a marker for the MEKK1 substrate. Reactions were terminated by addition of 5× Laemmlei SDS sample buffer, boiled and resolved by SDS-PAGE.

For another test, the system named is 98 kD PC12 cell MEKK. Nature of the test: MEKK immunoprecipitate kinase assay from PC12 cells with kinase inactive MEK-1. Type of test: cell-based. To be noted: for MEKK activity after stimulation (in words): serum starved PC12 cells, 5 minutes. Here is the method:
Reactions were stopped by the addition of 2×SDS sample buffer (20 μl). The samples were boiled for 3 minutes and subjected to SDS-PAGE and autoradiography. Raf-B was immunoprecipitated from the same untreated and treated PC12 cell lysates as above with an antiserum to a COOH-terminal peptide of Raf-B (Santa Cruz Biotechnology, Inc.) and assayed similarly. Raf-1 was immunoprecipitated with an antiserum to the 12 COOH-terminal amino acids of Raf-1 (Santa Cruz Biotechnology, Inc.).
Data represent the relative magnitude of the response for each timepoint as quantitated by phosphorimager analysis of radioactive gels from a typical experiment.
Expression of N^17Ras was induced in PC12 clones stably transfected with the N^17Ras gene by the addition of dexamethasone to the starvation media. […] PC12 cell clones stably transfected with the N^17Ras gene are less responsive to EGF-mediated activation of MEKK activity than are wild type PC12 cells. […] MEKK activity in immunoprecipitates or column fractions was dissociable from that of EGF-stimulated c-Raf-1 and Raf-B activities.
To determine whether the growth factor-mediated activation of 98 kD PC12 cell MEKK was inhibited by PKA, forskolin was used to elevate intracellular cAMP and activate PKA. […] Raf-B activity was also assayed from the same cell lysates to test whether its regulation differed from that of MEKK. Raf-B was immunoprecipitated from the same cell lysates as described above and assayed for its ability to phosphorylate MEK-1 as described above.

For a further test, the system named is Swiss 3T3 cells. The test is described as follows: MEKKCOOH-induced cell death after nuclear microinjection of expression plasmids. Type of test: cell-based. Here is the method: Swiss 3T3 and REF52 cells were plated on acid-washed glass cover slips in Dulbecco's Modified Eagle's Medium (DMEM) and 10% bovine calf serum (BCS) or newborn calf serum (NCS). Cells were placed in DMEM/0.1% calf serum for overnight incubation prior to microinjection and used for injection at 50-70% confluence. Injections were performed with an Eppendorf automated microinjection system with needles pulled from glass capillaries on a vertical pipette puller (Kopf, Tujunga, Calif.). Cells were injected with pCMVβ-gal in the presence or absence of pCMV5MEKKCOOH or pCMV5BxBRaf at 20-100 ng/μl for each expression plasmid in 100 mM KC1, 5 mM NaPO4, pH 7.3. Following injection cells were placed in 1% NCS for 12-18 hr (Swiss 3T3) or 42 hr (REF52) prior to fixation with paraformaldehyde and staining. Similar results were obtained when cells were placed in 10% NCS after microinjection. Propidium iodide ([…]) was used to stain DNA. X-Gal reactions were performed for six hr.
Swiss 3T3 cells were microinjected with 100 ng/μl pCMVβ-gal and 20 ng/μl pCMV5MEKKCOOH. To label free DNA ends fixed and rehydrated cells were incubated with terminal deoxytransferase (TDT) and 10 nM biotin-dUTP following the manufacturer's instructions (Boehringer-Mannheim). Cells were stained with FITC-streptavidin to label DNA fragments. β-gal was detected using rabbit anti-p-gal antibody (Cappel Labs) and a rhodamine-labeled goat anti-rabbit antibody (Cappel Labs).
Seventeen hours after injection cells were fixed and stained for, β-galactosidase activity with X-Gal. Injected cells attached to the coverslip were scored as positive for cell death when they were highly condensed, small round cells.

Another test has as its system Raf-B. Nature of the test: Raf-B immunoprecipitate kinase assay from PC12 cells with kinase inactive MEK-1. The format is cell-based. To be noted: PC12 cells, EGF 30 ng/ml 5 minutes.
A further test deals with L929 cells. The test is described as follows: Propidium iodide staining of L929 clones with inducible N17 Ras or V12 Ras. The format is cell-based, murine. To be noted: IPTG-induced expression. Here is the method:
Ras expression was induced with 5 mM IPTG for 10 hours and cells were subsequently treated with 5 ng/ml TNFα in the presence or absence of 0.5 ng/ml bFGF for 16 hours. Cells were fixed and stained with propidium iodide. The percentage of apoptotic cells was calculated. Solid bars represent cells induced with IPTG; hatched bars, induced with IPTG and treated with TNFα; checked bars, induced with IPTG and treated with TNFα and bFGF.
Cell lines and culture. […] JNK activity was measured using a solid state kinase assay in which glutathione S-transferase-c-Jun (1-79) (GST-JUN) cound to glutathione-Sepharose 4B beads was used to affinity purify JNK and then JNK activity was measured in an in vitro kinase assay using the sepharose bound GST-Jun as a substrate (Hibi, M., et al. (1993) Genes & Development 7:2135-2148). […] MAPK Assay MAPK activity was measured exactly as described previously (Gardner, A. M., et al. (1994) Meth. Enzymol. 238:258-270) with the exception that MonoQ FPLC fractionation was replaced by step elution from a DEAE-Sephacel column using 0.5 M NaCl in loading buffer. […]

Another test has as its system p42/p44 MAPK. Nature of the test: MAPK assay (DEAE-Sephacel, EGFR662-681 peptide) in L929 cells. The format is cell-based, murine. The conditions noted are these: L929 cells. Here is the method:
(§1) In panel A cells were treated for 10 minutes with the indicated concentration of TNFα. JNK activation was measured using a solid phase kinase assay resulting in phosphorylation of GST-Jun. In […] the time course of MAPK activation is shown. MAPK was isolated from cell lysates on DEAE sephacel columns and MAPK activation was measured by phosphorylation of the EGFR peptide substrate. Panel C depicts the concentration curve of MAPK activation by TNFα. Cells were treated with the indicated concentration of TNFα and MAPK was assayed.
FIG. 26 depicts the activation of MAPK by bFGF in L929 cells. Serum starved L929 cells were stimulated for 10 min with the indicated concentration of bFGF.
(§2) Cell lines and culture. L929 cells (ATCC CCL1 were maintained in Dulbecco's modified Eagle's medium with 5% newborn calf serum and 5% bovine calf serum (BCS) supplemented with 100 ug/ml streptomycin and 100 U/ml penicillin. The cells were grown in 10 cm dishes at 37° C. in 7.5% CO2. Cells were made quiescent where indicated by incubation in Dulbecco's modified Eagle's medium and 0.1% bovine serum albumin for 24 h. Recombinant murine TNFα and recombinant human bFGF (147aa) were from R&D Systems, Minneapolis, Minn. Cells were pretreated where indicated with the MEK-1 inhibitor PD#098059 (Parke-Davis Pharmaceutical Corp. Ann Arbor, Mich.) for 1 h at 37° C. Cells were stimulated by incubation with the indicated cytokine or growth factor for various times at 37° C. Stimulation was stopped by rinsing the plates twice with ice cold phosphate buffered saline (PBS) and lysing the cells in the appropriate lysis buffer. Cells were scraped from the plates and nuclei were pelleted for 10 min at 14,000 RPM in a microcentrifuge. JNK assay. JNK activity was measured using a solid state kinase assay in which glutathione S-transferase-c-Jun (1-79) (GST-JUN) cound to glutathione-Sepharose 4B beads was used to affinity purify JNK and then JNK activity was measured in an in vitro kinase assay using the sepharose bound GST-Jun as a substrate (Hibi, M., et al. (1993) Genes & Development 7:2135-2148). Stimulated or unstimulated cells were lysed in 0.5% Nonidet P-40, 20 mM HEPES pH 7.2, 100 mM NaCl, 2 mM dithiothreitol, 1 mM EDTA, 1.0 mM phenylmethylsulfonylfluoride, 1 μg/ml aprotinin and the nuclei pelleted. Lysates were normalized for protein content. JNK was affinity purified from 50-100 μg of cell lysate by the addition of 10 ul of GST-Jun sepharose slurry (2 μg GST-Jun). Binding to GST-Jun efficiently isolates the two major forms of JNK (p45 and p55) and under the conditions used JNK isolation was linear for 10-250 μg of cell lysate. The lysates were rotated at 4° C. for 1-3 h. Beads were washed twice in lysis buffer and then twice in PAN (10 mM PIPES, pH 7.0, 100 mM NaCl, 21 μg/ml aprotinin). Kinase reactions were carried out at 30° C. for 15 min in 20 mM Hepes pH 7.2, 20 mM β-glycerophosphate, 10 mM p-nitrophenyl phosphate, 10 mM MgCl2, 1 mM dithiothreitol, 50 μm sodium vanadate, 10 μCi γ^32P-ATP 4300 Ci/mmole. The kinase reaction was linear from 0-30 min. MAPK Assay MAPK activity was measured exactly as described previously (Gardner, A. M., et al. (1994) Meth. Enzymol. 238:258-270) with the exception that MonoQ FPLC fractionation was replaced by step elution from a DEAE-Sephacel column using 0.5 M NaCl in loading buffer. The eluate was assayed in triplicate using the epidermal growth factor receptor 662-681 peptide (EGFR662-681) as a selective substrate for MAPK activity (Heasley, L. E., et al. (1994) American Journal of Physiology (Renal Fluid Electrolyte Physiol. 36) 267:F366-F373). […] Cells were lysed by scraping in ice cold RIPA buffer (50 mM Tris-HCl, pH 7.2, 150 mM NaCl, 0.1% SDS, 0.5% sodium deoxycholate, 1.0% Triton X-100, 10 mM sodium pyrophosphate, 25 mM β-glycerophosphate, 2 mM sodium vanadate, 2.1 μg/ml aprotinin) and the nuclei were pelletted. […]

Another test has as its system JNK. The test is described as follows: JNK solid state kinase assay (GST-Jun) in L929 cells. Type of test: cell-based, murine. The conditions noted are these: L929 cells. Here is the method: as §1, §2
Where [1] appears, read: 100 ng/μl plasmids, seventeen hours after injection, X-Gal.

“Also recorded” adds a separate entry of the source.

As to “[D-Arg^1,D-Phe^5,D-Trp^7,9,Leu^11] substance P peptide [reference compound]”, the “effect on binding of GST-Ras^V12(GTPγS) agarose to MEKKCOOH-His” value in the test with GST-Ras^V12 is reported as “able to bind”.

In the case of NGF: Nerve growth factor, the “MEKK activity after stimulation (in words)” value in the test on 98 kD PC12 cell MEKK is recorded as “slight increase in MEKK activity; also recorded: also activated MEKK, although to a lesser degree than EGF”.

Regarding “Ras effector peptide: Ras peptide consisting of residues 17-42 of H-Ras (SALTIQLIQNHFVDEYDPTIEDSYRK; UniProt P01112 17-42, looked up, fragment)”, the “effect on binding of GST-Ras^V12(GTPγS) agarose to MEKKCOOH-His” value with GST-Ras^V12 is “prevented the binding”.

For `CCCCCCCCCCCCCC(=O)O[C@@H]1[C@@H](C)[C@@]2(O)[C@@H](C=C(CO)C[C@]3(O)C(=O)C(C)=C[C@@H]23)[C@H]2C(C)(C)[C@]12OC(C)=O` [TPA, reference compound], the “MEKK activity after stimulation (in words)” value in the test on 98 kD PC12 cell MEKK was “also activated MEKK, although to a lesser degree than EGF”.

In the case of β-gal [reference compound], in the test with Swiss 3T3 cells (setting [1]), the “Condensed Cells (number)” value is 4 and the “Condensed Cells (percent of cells injected)” value is “(1%)”. Moreover, the “injected cells with an altered morphology” value with Swiss 3T3 cells (48-72 hours post-injection) is recorded as less than 1%.

As to “N17 Ras: Dominant negative Ha-ras (Asn 17), inhibitory Ras [reference compound]”, in the test on Raf-B, the “effect on activation of Raf-B by EGF” value is on record as “greatly reduced”. In the test on L929 cells (5 ng/ml TNFα), the “effect on TNFα induced apoptosis” value is “did not affect”. Besides, in the test with L929 cells (TNFα plus bFGF), the “effect on ability of bFGF to protect against TNFα-mediated cell death” value is reported as “markedly inhibit”. For the same compound, the “effect on bFGF stimulation of MAPK activity” value with p42/p44 MAPK was “significantly blunted bFGF stimulation of MAPK”. For the same compound, the “effect on TNFα stimulation of JNK” value in the test with JNK is “had no effect on TNF stimulation of JNK”. Moreover, the “effect on activation of MEKK by EGF” value in the test with 98 kD PC12 cell MEKK (PC12 cells, EGF 30 ng/ml 5 minutes) was “inhibited the activation of MEKK by EGF”.

These data come from patent US20080201790A1, “Method and product for regulating cell responsiveness to external signals” (priority 1993, published 2008).
